# Data published in PubChem BioAssay (NCI).
#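 1) Cells in 96-well plates. 2) Compound, 48 h, 5 concentrations. 3) Linear interpolation between surrounding doses. 4) Unreached endpoint = highest concentration. GI50 is the concentration that inhibits growth by half. TGI denotes the concentration required for complete inhibition of growth.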
# Columns and labels:
# Assay in all cases: NCI tumour cell line growth inhibition, 48 h
# COLO 205 colon = system: COLO 205 colon
# MALME-3M melanoma = system: MALME-3M melanoma
# RPMI-8226 leukemia = system: RPMI-8226 leukemia
# A549 NSCLC = system: A549 NSCLC
# SNB-75 CNS = system: SNB-75 CNS
# RXF 393 renal = system: RXF 393 renal
# OVCAR-4 ovarian = system: OVCAR-4 ovarian
# T-47D breast = system: T-47D breast
# MDA-MB-231 breast = system: MDA-MB-231 breast
SMILES,TGI (COLO 205 colon) [µM],TGI (MALME-3M melanoma) [µM],TGI (RPMI-8226 leukemia) [µM],TGI (A549 NSCLC) [µM],TGI (SNB-75 CNS) [µM],TGI (RXF 393 renal) [µM],TGI (OVCAR-4 ovarian) [µM],GI50 (COLO 205 colon) [µM],GI50 (MALME-3M melanoma) [µM],GI50 (T-47D breast) [µM],TGI (T-47D breast) [µM],GI50 (OVCAR-4 ovarian) [µM],GI50 (RPMI-8226 leukemia) [µM],GI50 (A549 NSCLC) [µM],GI50 (MDA-MB-231 breast) [µM],TGI (MDA-MB-231 breast) [µM],GI50 (SNB-75 CNS) [µM],GI50 (RXF 393 renal) [µM]
Cc1ccc(/C=C/C(=O)c2sc(-c3nc(C)c(C(=O)/C=C/c4ccc(C)cc4)s3)nc2C)cc1,> 100,> 100,> 100,> 100,> 100,> 100,,,,,,,,,,,,
Cc1cc(Cl)ccc1NC(=O)C(=O)Cc1nc2ccccc2o1,> 100,> 100,> 100,> 100,> 100,> 100,> 100,,,,,,,,,,,
O=C(Nc1nc(=S)c2c(ncn2CCOC(=O)c2ccccc2)[nH]1)c1ccccc1,> 100,> 100,> 100,> 100,47.5,59.2,57.7,,,,,,,,,,,
Cc1cc(N(CCC#N)CCC#N)ccc1N=Nc1ccc(C(=O)O)cc1,> 100,> 100,> 100,> 100,> 100,> 100,> 100,,,,,,,,,,,
COc1ccc2c(c1)C(=O)c1c-2c(N2CCN(C(=O)CNCCNCCO)CC2)nc2ccccc12,4.19,5.97,4.68,24.3,,,19.4,2.17,2.55,2.49,6.55,6.71,2.04,7.1,3.23,12.7,,
COc1cc(F)ccc1-c1ncnc(Nc2cccc(CS(C)(=N)=O)c2)n1 (centres undefined),2.18,9.66,61,> 100,3.46,0.534,> 100,0.4,2.73,,,2.4,3.17,2.83,1.74,> 100,0.434,0.239
CCOC(=O)C(=[N+]=[N-])[Si](C)(C)C,> 100,> 100,,> 100,> 100,> 100,> 100,,,,,,,,,,,
NC(=O)C12CC3CC(CC(F)(C3)C1)C2,> 100,> 100,> 100,> 100,> 100,> 100,,,,,,,,,,,,
OCC1OC(c2nc(C3=NCCCN3)cs2)C(O)C1O (centres undefined),> 100,> 100,> 100,> 100,,,> 100,,,,,,,,,,,
[N-]=[N+]=N[C@H]1C[C@@H](CO)O[C@H]1n1cnc2c(N)ncnc21,> 100,> 100,,> 100,> 100,,> 100,,,,,,,,,,,
